# Source: patent publication US20250011445A1 (priority 2020, published 2025)
# Read-outs that look alike come from different tables or passages of the source. *1 amine or outer side, *2 acyl side, *3 side chain or, on linkers, in order; H or OH if unused. Where a SMILES comes first, the peptide text is derived from it. Bridges are numbered along the chain shown (N, C = ends). Roman numbers before positions name the chains, in order. [ ]: non-standard residue; d: D form. The star is where a group is joined. Hexamethylenediamine = C(CCCN[*:2])CCN[*:1]; Dip = N[C@H](C(=O)O)C(c1ccccc1)c1ccccc1; Chg = N[C@H](C(=O)O)C1CCCCC1; NMeA = CN[C@@H](C)C(=O)O; Cbz = O=C(OCc1ccccc1)*; CH2F = FC*
# B1: TRAIL: Death Ligand, also known as Apo2L (protein, UniProt P50591 1-281, looked up)
# Tumor necrosis factor ligand …: MAMMEVQGGPSLGQTCVLIVIFTVLLQSLCVAVTYVYFTNELKQMQDKYSKSGIACFLKEDDSYWDPNDEESMNSPCWQVKWQLRQLVRKMILRTSEETISTVQEKQQNISPLVRERGPQRVAAHITGTRGRSNTLSSPNSKNEKALGRKINSWESSRSGHSFLSNLHLRNGELVIHEKGFYYIYSQTYFRFQEEIKENTKNDKQMVQYIYKYTSYPDPILLMKSARNSCWSKDAEYGLYSIYQGGIFELKENDRIFVSVTNEHLIDMDHEASFFGAFLVG
# B2: FasL: Death Ligand, Fas ligand (protein, UniProt P48023 130-281, looked up)
# Tumor necrosis factor ligand …: QIGHPSPPPEKKELRKVAHLTGKSNSRSMPLEWEDTYGIVLLSGVKYKKGGLVINETGLYFVYSKVYFRGQSCNNLPLSHKVYMRNSKYPQDLVMMEGKMMSYCTTGQMWARSSYLGAVFNLTSADHLYVNVSELSLVNFEESQTFFGLYKL
# Legend:
# [1] = tested on: NIH3T3 cells; experiment: Death ligand-induced cell death in NIH3T3 cells, Sytox green, Incucyte; type: cell-based, mouse; details: in presence of zVAD-fmk
# [2] = tested on: Human pancreatic ductal epithelial cells (HPDECs); experiment: Death ligand-induced cell death in HPDECs, Sytox green, Incucyte; type: cell-based
# [3] = tested on: Primary human lung fibroblasts (MRC5 cells); experiment: Death ligand-induced cell death in MRC5 cells, Sytox green, Incucyte; type: cell-based; details: for inhibition of TRAIL-induced cell death: MRC5 cells, FIG. 5
# [4] = tested on: MRC5 cells; experiment: Western blot of cell lysates of IFN-treated MRC5 cells; type: cell-based, human; details: IFNs for 24 h
# Procedure: FIG. 6: MRC5 cells were treated with the indicated IFNs for 24 h before cells were lysed and cell lysates were analysed for presence of the indicated proteins by western blotting.
# [5] = tested on: Lung endothelial cells (LECs); type: cell-based, mouse; details: for sensitivity of cells to death ligand-induced cell death: 1 μg/ml Death Ligand, with zVAD
# [6] = tested on: Tnfr1KOHoil-1E-KO mice; experiment: Cell death-driven lethal skin inflammation (dermatitis) model, Tnfr1KO Hoil-1E-KO mice; type: in vivo; details: treated once inflammation has been initiated (from 30 days onwards)
# [7] = tested on: reovirus 1/L (R1/L); details: non-therapeutic inhibition; BOOP model and ARDS model; cited from earlier work
molecule,measurement,setting,value
IFN-gamma: type II IFN,sensitisation to death induction by TRAIL or FasL,"[1]; IFN pretreatment 24 hr, 1 μg/ml Death Ligand",significantly sensitised them to death induction by TRAIL or FasL
same,cell death induced by IFN alone,[1]; without death ligand,sufficient to significantly induce cell death
same,effect of IFN pre-treatment on sensitivity to TRAIL-induced cell death,"[2]; IFN overnight, then TRAIL 100 ng/ml",did not increase their sensitivity to cell death induction by TRAIL
same,effect of IFN pre-treatment on kinetics of TRAIL-induced cell death,[2]; compared to TRAIL alone,accelerated TRAIL-induced cell death
same,effect of IFN pre-treatment on sensitivity to TRAIL-induced cell death,"[3]; IFN overnight, then TRAIL 1 μg/ml",did not increase their sensitivity to cell death induction by TRAIL
same,FN14 expression (western blot),[4],upregulation of FN14
same,MLKL expression (western blot),[4],strongly upregulated
same,effect of IFN pre-treatment on sensitivity to death ligand-induced cell death,[5]; IFN overnight,sensitised these cells to FasL-mediated death
C[C@]12C=CC(=O)C=C1CC[C@H]1[C@@H]3C[C@@H](O)[C@](O)(C(=O)CO)[C@@]3(C)C[C@H](O)[C@@]12F [Triamcinolone],"ongoing skin inflammation / skin lesions, therapeutic treatment",[6],insufficient to achieve a meaningful therapeutic effect
"COC(=O)C[C@H](NC(=O)[C@H](C)NC(=O)[C@@H](NC(=O)OCc1ccccc1)C(C)C)C(=O)CF [zVAD-fmk, reference compound] (Cbz-Val-Ala-Asp(OMe)-CH2F)",inhibition of cell death induced by TRAIL in combination with IFN-gamma,[2]; HPDECs,"delayed the death of HPDECs induced by TRAIL in combination with IFN-gamma, it could not prevent it"
same,"inhibition of cell death induced by the different combinations (BV6, TRAIL, IFN-gamma)",[3]; FIG. 9,completely inhibited
same,inhibition of TRAIL-induced cell death,[3],completely blocked
same,dependence of observed cell death on caspase inhibition,[5]; all death ligands,required inhibition of caspases by zVAD
CN[C@@H](C)C(=O)N[C@H](C(=O)N1CCC[C@H]1C(=O)N[C@H](C(=O)NCCCCCCNC(=O)[C@@H](NC(=O)[C@@H]1CCCN1C(=O)[C@@H](NC(=O)[C@H](C)NC)C1CCCCC1)C(c1ccccc1)c1ccccc1)C(c1ccccc1)c1ccccc1)C1CCCCC1 [BV6] (I: H-[NMeA][Chg]P[Dip] / II: H-[NMeA][Chg]P[Dip]; linker I:C-II:C via Hexamethylenediamine),"toxicity in combination with TRAIL, IFN-gamma alone or IFN-gamma and TRAIL",[3],enhanced toxicity
same,sensitisation of cells by IAP antagonist alone,"[3]; BV6 alone, FIG. 9",did not sensitise these cells
"CN1C(=O)NC(Cc2c[nH]c3c(Cl)cccc23)C1=O (stereo not shown) [Nec-1s, reference compound]",inhibition of cell death induced by TRAIL in combination with IFN-gamma,[2],"delayed the death of HPDECs induced by TRAIL in combination with IFN-gamma, it could not prevent it"
same,inhibition of TRAIL-induced cell death,[3],could not be blocked
CC[C@H](C)[C@H](NC(=O)OCc1ccccc1)C(=O)N[C@@H](CCC(=O)OC)C(=O)N[C@H](C(=O)N[C@@H](CC(=O)OC)C(=O)CF)[C@@H](C)O [zIETD-fmk] (Cbz-IE(OMe)TD(OMe)-CH2F),"aberrant cell death, inflammation and fibrosis in lung tissue",[7],"reduces aberrant cell death, inflammation and fibrosis in lung tissue"
B1,sensitivity of cells to death ligand-induced cell death,[2]; 100 ng/ml Death Ligand,exquisitely sensitive to TRAIL-induced apoptosis
same,sensitivity of cells to death ligand-induced cell death,[3]; 1 μg/ml Death Ligand,exquisitely sensitive to TRAIL-induced apoptosis
same,sensitivity of cells to death ligand-induced cell death,[5],highly sensitive to cell death induction
B2,sensitivity of cells to death ligand-induced cell death,[5],relatively insensitive
